Test results as given in patent US20050113334A1, “COMPOSITION AND METHOD” (priority 2003, published 2005).

Tested on: Desulfovibrio spp.
Experiment: In vitro fermentation of fibers with canine fecal inoculum, FISH enumeration
Format: cell-based
Settings: 39° C.; for Numbers of Desulfovibrio spp., LOG10 CFU AT 8 HOUR: after 8 hour incubation
Procedure: Fermentation vessels containing anaerobic phosphate buffered medium were prepared and 1 ml canine fecal inoculum (10% w/v fecal sample to buffer) added. The composition of the media was as described in Sunvold G D, Hussein H S, Fahey G C, Merchen N R, and Reinhart G A (1995), In vitro fermentation of selected fiber sources by dogs fecal inoculum and in vivo digestion and metabolism of fiber supplemental diets. J. Animal Sci. 73:1099-1109 (1995). Fermentations were carried out at 39° C. Experiments were conducted in a blind-coded manner with different fibers. […] An aliquot of this was prepared for FISH. […] Genus specific 16SrRNA-targeted probes were synthesized and monolabelled at the 5″ end with fluorescent dye to detect bacteria of interest in the fermentation media. Total nucleic acid was stained to obtain total microbial counts.

| Substance | Numbers of Desulfovibrio spp., Log10 CFU AT 0 HOUR | Numbers of Desulfovibrio spp., LOG10 CFU AT 8 HOUR |
| --- | --- | --- |
| Arabinogalactan | 7.5 ± 0.3 log cfu/ml of fecal inoculum | 6.4 ± 1.0 log cfu/ml of fecal inoculum |
| Fructooligosaccharide | 6.9 ± 1.0 log cfu/ml of fecal inoculum | 6.3 ± 0.8 log cfu/ml of fecal inoculum |
| Galacto-oligosaccharide | 7.0 ± 1.0 log cfu/ml of fecal inoculum | 6.8 ± 0.9 log cfu/ml of fecal inoculum |
| Inulin | 7.3 ± 0.2 log cfu/ml of fecal inoculum | 6.4 ± 1.0 log cfu/ml of fecal inoculum |
| Xylooligosaccharide | 7.2 ± 0.4 log cfu/ml of fecal inoculum | 6.8 ± 0.9 log cfu/ml of fecal inoculum |
